Like-named read-outs stand apart in the source and are kept apart here.
Legend:
hPIV-3 HN [1] = molecular target: T1, hPIV-3 HN (UniProt P08492); format: biochemical, hPIV-3 (strain C-243); parameters: rows headed: HI Mean IC50; hPIV-3 HN; 3 independent experiments; fold improvement in HI assay; other: versus 6; hPIV-3 HN HI IC50; other: text; other: text, unit given as M
T1 sequence (P08492 1-572): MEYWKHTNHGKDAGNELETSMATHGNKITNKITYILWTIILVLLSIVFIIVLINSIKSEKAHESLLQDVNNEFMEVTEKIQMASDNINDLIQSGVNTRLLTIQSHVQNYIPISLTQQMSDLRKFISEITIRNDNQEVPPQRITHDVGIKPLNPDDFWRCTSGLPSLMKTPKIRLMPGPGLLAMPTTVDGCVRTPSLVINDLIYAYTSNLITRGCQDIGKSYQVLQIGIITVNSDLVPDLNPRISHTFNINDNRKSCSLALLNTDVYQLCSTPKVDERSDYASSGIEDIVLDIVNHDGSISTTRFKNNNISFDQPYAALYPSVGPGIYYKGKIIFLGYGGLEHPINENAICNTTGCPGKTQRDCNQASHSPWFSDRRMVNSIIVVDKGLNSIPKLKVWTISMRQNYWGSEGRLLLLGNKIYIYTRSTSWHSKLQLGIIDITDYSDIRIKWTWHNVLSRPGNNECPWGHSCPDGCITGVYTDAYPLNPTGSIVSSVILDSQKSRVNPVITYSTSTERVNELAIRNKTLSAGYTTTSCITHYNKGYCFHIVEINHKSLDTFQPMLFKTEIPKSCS

hPIV-3 HN [2] = molecular target: T2, hPIV-3 HN (Human parainfluenza 3 virus, UniProt P08492); format: biochemical, hPIV-3 (strain C-243); settings: Table 5; read-out: hPIV-3 NI (IC50 values)
hPIV-3 HN [3] = molecular target: T2, hPIV-3 HN; format: binding; settings: 20 μM hPIV-3 HN, protein:ligand 1:100
LLC-MK2 cells = experiment: MTT assay for compound cytotoxicity; settings: 48 h, 30 μM, highest concentration tested
Experimental: Infection was performed in duplicate and continued for 1 h at 37° C. with gentle agitation every 15 min. Inocula were removed and replaced with 500 μL/well of each respective 2 μM compound dilution (in EMEMinf).

hPIV-1 NI = hPIV-1 NI (Human parainfluenza 1 virus, UniProt P16071); experiment: biochemical
Sequence of hPIV-1 NI (P16071 whole entry): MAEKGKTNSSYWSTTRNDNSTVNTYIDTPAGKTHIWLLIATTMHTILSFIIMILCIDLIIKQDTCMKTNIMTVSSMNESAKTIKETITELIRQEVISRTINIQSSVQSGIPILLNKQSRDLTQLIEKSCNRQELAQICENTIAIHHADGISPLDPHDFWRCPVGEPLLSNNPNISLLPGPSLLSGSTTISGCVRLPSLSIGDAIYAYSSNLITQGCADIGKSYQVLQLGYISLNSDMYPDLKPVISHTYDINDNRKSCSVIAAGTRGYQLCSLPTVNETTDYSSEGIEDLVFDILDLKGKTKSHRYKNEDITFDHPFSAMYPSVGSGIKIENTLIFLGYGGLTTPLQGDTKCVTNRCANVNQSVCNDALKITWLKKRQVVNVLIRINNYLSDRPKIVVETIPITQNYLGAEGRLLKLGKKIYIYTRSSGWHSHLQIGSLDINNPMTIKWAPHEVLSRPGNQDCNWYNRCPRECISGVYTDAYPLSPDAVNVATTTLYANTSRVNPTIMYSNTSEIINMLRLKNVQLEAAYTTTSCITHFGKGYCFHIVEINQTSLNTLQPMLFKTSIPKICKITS
Experimental: IC50 values for a number of compounds of the first aspect were determined by standard assay methods previously described in Guillon, P et al, Nature Communications (2014).

hPIV-3 HN [4] = molecular target: T1, hPIV-3 HN; format: biochemical, hPIV-3 (strain C-243); parameters: rows headed: NI Mean IC50; hPIV-3 HN; 3 independent experiments; Ki; Km value for MUN; other: whole hPIV-3 virus, [I]=0; fold improvement in NI assay; other: versus 6; hPIV-3 HN NI IC50; other: text; other: text, unit given as M
hPIV-3 HN [5] = molecular target: T1, hPIV-3 HN; format: biochemical, hPIV-3 (strain C-243); parameters: rows headed: NI hPIV-3 IC50; settings: read-out: NI hPIV-3 IC50
hPIV-3 [6] = experiment: In situ ELISA virus growth inhibition; format: cell-based, hPIV-3 (strain C-243)
hPIV-3 HN [7] = molecular target: T1, hPIV-3 HN; format: biochemical, hPIV-3 (strain C-243); parameters: rows headed: NI Mean IC50; hPIV-3 HN; 3 independent experiments; Ki; Km value for MUN; other: whole hPIV-3 virus, [I]=0; fold improvement in NI assay; other: versus 6; hPIV-3 HN NI IC50; other: text; other: text, unit given as M; remark: listed apart in the source
hPIV-3 [8] = experiment: Virus growth inhibition assay, titration of progeny virus (focus forming assay) in LLC-MK2 cells; format: cell-based, hPIV-3 (strain C-243)
[9] = Table 2 prints no unit, μM, hPIV-3 HN, 3 independent experiments, read-out: HI Mean IC50
[10] = Table 2 prints no unit, μM, hPIV-3 HN, 3 independent experiments, read-out: NI Mean IC50
[11] = Human respirovirus 3, Table 4, A549 cells, hPIV-3, read-out: Cell-based ELISA IC50

Question: How did the IC50 (hPIV-3 HN [1]; [9]) turn out when `CC(=O)N[C@H]1[C@H]([C@H](O)[C@H](O)CO)OC(C(=O)[O-])=C[C@@H]1n1cc(-c2ccccc2)nn1.[Na+]` [Compound 8, Sodium 5-acetamido-2,6-anhydro-3,4,5-trideoxy-4-(4-phenyl-[1,2,3,]triazol-1-yl)-D-glycero-D-galacto-non-2-enonate] was run?
Answer: 4.58 µM

Question: And the IC50 (hPIV-3 HN [1]; read-out: hPIV-3 HN HI IC50)?
Answer: 4.6 µM

Question: And the IC50 (hPIV-3 HN [2])?
Answer: 5.85 µM

Question: What about the “Relative STD NMR effect, ArH4′” value (hPIV-3 HN [3]; reference signal) of the same compound?
Answer: 100%

Question: And the “Relative STD NMR effect, ArH2′ ArH6′” value (hPIV-3 HN [3]; relative to ArH4′)?
Answer: 92%

Question: And the “Relative STD NMR effect, ArH3′ ArH5′” value (hPIV-3 HN [3]; relative to ArH4′)?
Answer: 100%

Question: And the “Relative STD NMR effect, H3” value (hPIV-3 HN [3]; relative to ArH4′)?
Answer: 85%

Question: What about the “Relative STD NMR effect, H4” value (hPIV-3 HN [3]; relative to ArH4′) of the same compound?
Answer: 59%

Question: What about the “Relative STD NMR effect, H5” value (hPIV-3 HN [3]; relative to ArH4′) of the same compound?
Answer: 50%

Question: And the “Relative STD NMR effect, H6” value (hPIV-3 HN [3]; relative to ArH4′)?
Answer: 49%

Question: And the “Relative STD NMR effect, H7” value (hPIV-3 HN [3]; relative to ArH4′)?
Answer: 30%

Question: What about the “Relative STD NMR effect, H8” value (hPIV-3 HN [3]; relative to ArH4′) of the same compound?
Answer: 30%

Question: And the “Relative STD NMR effect, H9” value (hPIV-3 HN [3]; relative to ArH4′)?
Answer: 12%

Question: What about the “Relative STD NMR effect, H9′” value (hPIV-3 HN [3]; relative to ArH4′) of the same compound?
Answer: 18%

Question: And the “Relative STD NMR effect, NHAc” value (hPIV-3 HN [3]; relative to ArH4′)?
Answer: 41%

Question: What about the “Relative STD NMR effect, Triazole CH” value (hPIV-3 HN [3]; relative to ArH4′) of the same compound?
Answer: 63%

Question: What about the “Cytotoxic effect (MTT)” value (LLC-MK2 cells) of the same compound?
Answer: No cytotoxic effect

Question: What about the IC50 (hPIV-1 NI) of the same compound?
Answer: 168 µM

Question: And the IC50 (hPIV-3 HN [4]; [10])?
Answer: 6.51 µM

Question: What about the IC50 (hPIV-3 HN [4]; read-out: hPIV-3 HN NI IC50) of the same compound?
Answer: 6.5 µM

Question: For `COCc1cn([C@H]2C=C(C(=O)O)O[C@@H]([C@H](O)[C@H](O)CO)[C@@H]2NC(C)=O)nn1` [Compound 7, Sodium 5-acetamido-2,6-anhydro-3,4,5-trideoxy-4-(4-methoxymethyl-[1,2,3,]triazol-1-yl)-D-glycero-D-galacto-non-2-enonate], which IC50 (hPIV-3 HN [1]; [9]) is on record?
Answer: 312 µM

Question: And the IC50 (hPIV-3 HN [1]; read-out: hPIV-3 HN HI IC50)?
Answer: 313 µM

Question: What about the IC50 (hPIV-3 HN [2]) of the same compound?
Answer: 148 µM

Question: What about the IC50 (hPIV-1 NI) of the same compound?
Answer: 19.8 µM

Question: What about the IC50 (hPIV-3 HN [4]; [10]) of the same compound?
Answer: 154 µM

Question: What about the IC50 (hPIV-3 HN [4]; read-out: hPIV-3 HN NI IC50) of the same compound?
Answer: 154 µM

Question: What does the source list for `CC(C)C(=O)NC1C(O)C=C(C(=O)O)OC1C(O)C(O)CO` (stereo not shown) [Compound 5, reference compound]?
Answer: IC50 (hPIV-3 HN [1]; [9]): 358 µM; IC50 (hPIV-3 HN [4]; [10]): 188 µM

Question: Which results are given for `COCc1cn(C2C(NC(=O)C(C)C)C(C(O)C(O)CO)OC(F)(C(=O)O)C2F)nn1` (stereo not shown) [I-104]?
Answer: IC50 (hPIV-3 HN [5]; Table 4): 4 µM; IC50 (hPIV-3 [6]; [11]): 25 µM

Question: With `CC(=O)N[C@H]1[C@H]([C@H](O)[C@H](O)CO)O[C@@](Oc2ccc3c(C)cc(=O)oc3c2)(C(=O)O)C[C@@H]1O` [MUN, 2′-(4-methylumbelliferyl) […]-D-N-acetylneuraminide] as the compound, how does the Km (hPIV-3 HN [7]; read-out: Km value for MUN) read?
Answer: 5.1 mM

Question: Which IC50 (hPIV-3 HN [1]; read-out: HI Mean IC50) does the source give for `CC(C)C(=O)N[C@H]1[C@H]([C@H](O)[C@H](O)CO)OC(C(=O)O)=C[C@@H]1N=[N+]=[N-]` [Compound 6, BCX 2798, reference compound] here?
Answer: 16.1 µM

Question: And the IC50 (hPIV-3 HN [1]; read-out: hPIV-3 HN HI IC50)?
Answer: 16.1 µM

Question: What about the “Virus growth inhibition (reduction in virus titre)” value (hPIV-3 [8]; 2 μM inhibitor, 48 h, LLC-MK2 cells, low MOI) of the same compound?
Answer: 14%

Question: And the Ki (hPIV-3 HN [7])?
Answer: 16 µM

Question: And the IC50 (hPIV-3 HN [5])?
Answer: 18 µM

Question: And the IC50 (hPIV-3 [6]; LLC-MK2, A549 and NHBE cells, read-out: Virus growth inhibition IC50, range over all three cell lines)?
Answer: 54.6 to 131 µM

Question: What about the IC50 (hPIV-3 [6]; LLC-MK2 cells, read-out: Virus growth IC50 (in situ ELISA)) of the same compound?
Answer: 54.6 ± 3.8 µM

Question: What about the IC50 (hPIV-3 [6]; NHBE cells, read-out: Virus growth IC50 (in situ ELISA)) of the same compound?
Answer: 79.3 ± 1 µM

Question: And the IC50 (hPIV-3 [6]; Table 4, A549 cells, hPIV-3, read-out: Cell-based ELISA IC50)?
Answer: 130 µM

Question: And the IC50 (hPIV-3 HN [4]; read-out: NI Mean IC50)?
Answer: 21.5 µM

Question: What about the IC50 (hPIV-3 HN [4]; read-out: hPIV-3 HN NI IC50) of the same compound?
Answer: 21.5 µM

Question: With `COCc1cn([C@H]2C=C(C(=O)O)O[C@@H]([C@H](O)[C@H](O)CO)[C@@H]2NC(=O)C(C)C)nn1` [Compound 9, Sodium 2,6-anhydro-3,4,5-trideoxy-5-isobutyramido-4-(4-methoxymethyl-[1,2,3,]triazol-1-yl)-D-glycero-D-galacto-non-2-enonate] as the compound, how does the IC50 (hPIV-3 HN [1]; [9]) read?
Answer: 13.8 µM

Question: What about the IC50 (hPIV-3 HN [1]; read-out: hPIV-3 HN HI IC50) of the same compound?
Answer: 13.8 µM

Question: And the IC50 (hPIV-3 HN [2])?
Answer: 13.1 µM

Question: And the IC50 (hPIV-1 NI)?
Answer: 0.489 µM

Question: And the IC50 (hPIV-3 HN [4]; [10])?
Answer: 14.2 µM

Question: What about the IC50 (hPIV-3 HN [4]; read-out: hPIV-3 HN NI IC50) of the same compound?
Answer: 14.2 µM

Question: How did the IC50 (hPIV-3 HN [5]; Table 4) turn out when `CC(C)C(=O)NC1C(N=[N+]=[N-])C(F)C(F)(C(=O)O)OC1[C@H](O)[C@H](O)CO` (stereo partly shown) [I-70] was run?
Answer: 6 µM

Question: What about the IC50 (hPIV-3 [6]; [11]) of the same compound?
Answer: 14 µM

Question: `CC(C)C(=O)N[C@H]1[C@H]([C@H](O)[C@H](O)CO)OC(C(=O)[O-])=C[C@@H]1n1cc(-c2ccccc2)nn1.[Na+]` [Compound 10, Sodium 2,6-anhydro-3,4,5-trideoxy-5-isobutyramido-4-(4-phenyl-[1,2,3,]triazol-1-yl)-D-glycero-D-galacto-non-2-enonate] was tested. Which inhibition at 2 µM (hPIV-3 [8]; Human respirovirus 3, LLC-MK2, 48 h, read-out: Virus growth inhibition (reduction in virus titre)) did it give?
Answer: 94%

Question: And the “Cytotoxic effect (MTT)” value (LLC-MK2 cells)?
Answer: No cytotoxic effect

Question: What about the IC50 (hPIV-3 [6]; Human respirovirus 3, A549, read-out: Virus growth IC50 (in situ ELISA)) of the same compound?
Answer: 10.3 ± 0.3 µM

Question: What about the IC50 (hPIV-3 [6]; Human respirovirus 3, LLC-MK2, read-out: Virus growth IC50 (in situ ELISA)) of the same compound?
Answer: 2.1 ± 0.6 µM

Question: And the IC50 (hPIV-3 [6]; Human respirovirus 3, NHBE, read-out: Virus growth IC50 (in situ ELISA))?
Answer: 13.9 ± 0.7 µM

Question: And the IC50 (hPIV-3 [6]; Human respirovirus 3, read-out: Virus growth inhibition IC50, range over all three cell lines)?
Answer: 2.1 to 13.9 µM

Question: What about the “times more potent than 6, cell-based assay” value (hPIV-3 [6]; LLC-MK2 cells, versus 6) of the same compound?
Answer: ~26 times

Question: With `CC(C)C(=O)NC1C([C@H](O)[C@H](O)CO)OC(F)(C(=O)O)C(F)C1n1cc(-c2ccccc2)nn1` (stereo partly shown) [I-79] as the compound, how does the IC50 (hPIV-3 HN [5]; Table 4) read?
Answer: 63 µM

Question: What about the IC50 (hPIV-3 [6]; [11]) of the same compound?
Answer: 45 µM

Question: What does the source list for `CC(=O)NC1C(N=[N+]=[N-])C=C(C(=O)O)OC1C(O)C(O)CO` (stereo not shown) [Compound 3, 4-azido-4-deoxy-Neu5Ac2en, reference compound]?
Answer: IC50 (hPIV-3 HN [1]; read-out: hPIV-3 HN HI IC50): 210 µM; IC50 (hPIV-3 HN [4]; [10]): 138 µM

Reference: patent US10028938B2, “Antiviral agents and uses thereof” (Griffith University, priority 2014, dated 2018)
